Test results: US20250242064A1, “CXCR4-TARGETING COMPOUNDS, AND METHODS OF MAKING AND USING THE SAME” (PROVINCIAL HEALTH SERVICES AUTHORITY, priority 2022, published 2025)
Where a SMILES comes first, the peptide text is derived from it. Bridges are numbered along the chain shown (N, C = ends). [ ]: non-standard residue; d: D form. The star is where a group is joined. X1 = O=C(O)CN1CCN(CC(=O)O)CCN(CC(=O)N[C@@H](CS(=O)(=O)O)C(=O)N[C@@H](CCCCNC(=O)CCCc2ccc(I)cc2)C(=O)*)CCN(CC(=O)O)CC1; 2Nal = N[C@@H](Cc1ccc2ccccc2c1)C(=O)O; Lys(iPr) = CC(C)NCCCC[C@H](N)C(=O)O

Experiment: in vivo
Set-up: species or system mice
Details: male, mouse, iv, total radioactivity
Experimental: The Z138 Mantle cell lymphoma cell line was purchased from the American Type Culture Collection (ATCC©CRL-3001). The cell line was cultured in a 5% CO2 atmosphere at 37° C. in a humidified incubator with IMDM medium supplemented with 10% fetal bovine serum, 100 I.U./mL penicillin, and 100 μg/mL streptomycin.
[^68Ga]GaCl3 was eluted from an iThemba Labs generator with a total of 4 mL of 0.1 M HCl. The eluted [^68Ga]GaCl3 solution was added to 2 mL of concentrated HCl. This radioactive mixture was then added to a DGA resin column and washed with 3 mL of 5 M HCl. The column was then dried with air and the [^68Ga]GaCl3 (0.10-0.50 GBq) was eluted with 0.5 mL of water into a vial containing a solution of the unlabeled precursor (25 μg) in 0.7 mL HEPES buffer (2 M, pH 5.3). The reaction mixture was heated in a microwave oven (Danby; DMW7700WDB) for 1 min at power setting 2. The mixture was purified by semi-prep HPLC and quality control was performed via analytical HPLC with the co-injection of the unlabeled standard with a one-twelfth of the radiotracer. Radiochemical yields (decay-corrected) were >50% and radiochemical purities were >95%.
Animal experiments were performed in accordance with guidelines established by the Canadian Council on Animal Care, under a research protocol approved by the Animal Ethics Committee of the University of British Columbia. For all studies, male NOD.Cg-Rag1tm1Momll2rgtm1Wjl/SzJ (NRG) mice were used and cells injected in a 100 μL solution of 1:1 ratio of PBS/Matrigel. For preclinical imaging and biodistribution studies, 5×10^6 cells of Z138, cells were subcutaneously inoculated on the left or right flank and tumors were grown to a size of 200-300 mm^3. […]
Under isoflurane anesthesia (2-2.5% isoflurane in 2 L/min 02), mice were injected intravenously with [^68Ga]Ga-BL34L6 or [^68Ga]Ga-BL34L7. Mice were euthanized by CO2 inhalation after anesthesia with isoflurane. Tissues were harvested, washed in PBS, patted dry, weighed, and then assayed radioactivity on a gamma counter. Counted radioactivities were converted to percentage injected dose per gram of tissue (% ID/g) using a calibration curve.

[1] = NOD.Cg-Rag1tm1Mom Il2rgtm1Wjl/SzJ (NRG), Biodistribution: Adrenals
[2] = NOD.Cg-Rag1tm1Mom Il2rgtm1Wjl/SzJ (NRG), Biodistribution: Bone
[3] = NOD.Cg-Rag1tm1Mom Il2rgtm1Wjl/SzJ (NRG), Biodistribution: Brain
[4] = NOD.Cg-Rag1tm1Mom Il2rgtm1Wjl/SzJ (NRG), Biodistribution: Heart
[5] = NOD.Cg-Rag1tm1Mom Il2rgtm1Wjl/SzJ (NRG), Biodistribution: Kidneys
[6] = NOD.Cg-Rag1tm1Mom Il2rgtm1Wjl/SzJ (NRG), Biodistribution: Liver
[7] = NOD.Cg-Rag1tm1Mom Il2rgtm1Wjl/SzJ (NRG), Biodistribution: Lungs
[8] = NOD.Cg-Rag1tm1Mom Il2rgtm1Wjl/SzJ (NRG), Biodistribution: Muscle
[9] = NOD.Cg-Rag1tm1Mom Il2rgtm1Wjl/SzJ (NRG), Biodistribution: Pancreas
[10] = NOD.Cg-Rag1tm1Mom Il2rgtm1Wjl/SzJ (NRG), Biodistribution: Small Intestine
[11] = NOD.Cg-Rag1tm1Mom Il2rgtm1Wjl/SzJ (NRG), Biodistribution: Spleen
[12] = NOD.Cg-Rag1tm1Mom Il2rgtm1Wjl/SzJ (NRG), Biodistribution: Z138 Tumor
[13] = NOD.Cg-Rag1tm1Mom Il2rgtm1Wjl/SzJ (NRG), Ratio Tumor-to-Blood
[14] = NOD.Cg-Rag1tm1Momll2rgtm1Wjl/SzJ (NRG), Biodistribution: Blood
[15] = NOD.Cg-Rag1tm1Momll2rgtm1Wjl/SzJ (NRG), Biodistribution: Stomach
[16] = NOD.Cg-Rag1tm1Momll2rgtm1Wjl/SzJ (NRG), Biodistribution: Testes
[17] = NOD.Cg-Rag1tm1Momll2rgtm1Wjl/SzJ (NRG), Ratio Tumor-to-Bone
[18] = NOD.Cg-Rag1tm1Momll2rgtm1Wjl/SzJ (NRG), Ratio Tumor-to-Kidney
[19] = NOD.Cg-Rag1tm1Momll2rgtm1Wjl/SzJ (NRG), Ratio Tumor-to-Muscle
[20] = NOD.Cg-Rag1tm1Momll2rgtm1Wjl/SzJ (NRG), Ratio Tumor-to-Pancreas

Compound: CC(C)NCCCC[C@H](NC(=O)[C@H]1CCC(=O)N[C@@H](CCCCNC(=O)[C@H](CCCCNC(=O)CCCc2ccc(I)cc2)NC(=O)[C@H](CS(=O)(=O)O)NC(=O)CN2CCN(CC(=O)O)CCN(CC(=O)O)CCN(CC(=O)O)CC2)C(=O)N[C@@H](Cc2ccc(O)cc2)C(=O)N[C@@H](CCCCNC(C)C)C(=O)N[C@H](CCCNC(=N)N)C(=O)N[C@@H](Cc2ccc3ccccc3c2)C(=O)N[C@H](C)C(=O)N1)C(N)=O [[^177Lu]Lu-BL34L11, metal not drawn] (K(X1)Y[Lys(iPr)][dR][2Nal][dA][dE][Lys(iPr)]-NH2; lactam N-7)
- tissue uptake at 24 h [1]: 2.44 %ID/g
- tissue uptake at 72 h [1]: 1.8 %ID/g
- tissue uptake at 120 h [1]: 1.62 %ID/g
- tissue uptake at 24 h [2]: 0.71 %ID/g
- tissue uptake at 72 h [2]: 0.42 %ID/g
- tissue uptake at 120 h [2]: 0.29 %ID/g
- tissue uptake at 24 h [3]: 0.18 %ID/g
- tissue uptake at 72 h [3]: 0.07 %ID/g
- tissue uptake at 120 h [3]: 0.05 %ID/g
- tissue uptake at 24 h [4]: 1.8 %ID/g
- tissue uptake at 72 h [4]: 1.1 %ID/g
- tissue uptake at 120 h [4]: 0.76 %ID/g
- tissue uptake at 24 h [5]: 2.67 %ID/g
- tissue uptake at 72 h [5]: 1.19 %ID/g
- tissue uptake at 120 h [5]: 0.75 %ID/g
- tissue uptake at 24 h [6]: 1.99 %ID/g
- tissue uptake at 72 h [6]: 1.1 %ID/g
- tissue uptake at 120 h [6]: 0.45 %ID/g
- tissue uptake at 24 h [7]: 4.88 %ID/g
- tissue uptake at 72 h [7]: 2.86 %ID/g
- tissue uptake at 120 h [7]: 1.91 %ID/g
- tissue uptake at 24 h [8]: 0.76 %ID/g
- tissue uptake at 72 h [8]: 0.38 %ID/g
- tissue uptake at 120 h [8]: 0.21 %ID/g
- tissue uptake at 24 h [9]: 1.05 %ID/g
- tissue uptake at 72 h [9]: 0.45 %ID/g
- tissue uptake at 120 h [9]: 0.53 %ID/g
- tissue uptake at 24 h [10]: 0.79 %ID/g
- tissue uptake at 72 h [10]: 0.38 %ID/g
- tissue uptake at 120 h [10]: 0.21 %ID/g
- tissue uptake at 24 h [11]: 2.13 %ID/g
- tissue uptake at 72 h [11]: 1.96 %ID/g
- tissue uptake at 120 h [11]: 1.86 %ID/g
- tissue uptake at 24 h [12]: 26.6 %ID/g
- tissue uptake at 72 h [12]: 35 %ID/g
- tissue uptake at 120 h [12]: 41.2 %ID/g
- tissue to tissue ratio at 24 h [13]: 3.42
- tissue to tissue ratio at 72 h [13]: 12.3
- tissue to tissue ratio at 120 h [13]: 25
- tissue to tissue ratio at 72 h (NOD.Cg-Rag1tm1Mom Il2rgtm1Wjl/SzJ (NRG), Ratio Tumor-to-Muscle): 91.8
- tissue uptake at 24 h [14]: 7.82 %ID/g
- tissue uptake at 72 h [14]: 2.84 %ID/g
- tissue uptake at 120 h [14]: 1.6 %ID/g
- tissue uptake at 24 h [15]: 0.75 %ID/g
- tissue uptake at 72 h [15]: 0.32 %ID/g
- tissue uptake at 120 h [15]: 0.24 %ID/g
- tissue uptake at 24 h [16]: 2.64 %ID/g
- tissue uptake at 72 h [16]: 1.47 %ID/g
- tissue uptake at 120 h [16]: 2.04 %ID/g
- tissue to tissue ratio at 24 h [17]: 28.3
- tissue to tissue ratio at 72 h [17]: 53.7
- tissue to tissue ratio at 120 h [17]: 55.9
- tissue to tissue ratio at 24 h [18]: 10.1
- tissue to tissue ratio at 72 h [18]: 29.3
- tissue to tissue ratio at 120 h [18]: 54.2
- tissue to tissue ratio at 24 h [19]: 35.8
- tissue to tissue ratio at 120 h [19]: 190
- tissue to tissue ratio at 24 h [20]: 25.9
- tissue to tissue ratio at 72 h [20]: 71.7
- tissue to tissue ratio at 120 h [20]: 122
